Results published in PMC11317875 (Chemical Science, 2024).
Where two headings read alike, the source gives them in different places.

What was measured:
[1] = molecular target: T1, LpqY (Mycolicibacterium thermoresistibile, UniProt G7CES0); parameters: His-SUMO (N, cleaved yes); made in house; host or cells: E. coli BL21 (DE3); conditions: LpqY-azide-trehalose binding; cited from earlier work
[2] = test system: M. bovis BCG; assay type: cell-based, Mycobacterium bovis BCG; conditions: for new spots in the lipid extracts (TLC): 100 μM probe
[3] = test system: Mycobacterium tuberculosis; experiment: Ion chromatography of hydrolysed lipid extracts of F-Tre labelled Mtb; assay type: cell-based
[4] = test system: Mtb; assay type: cell-based, Mycobacterium tuberculosis; conditions: for new spots in the lipid extracts (TLC) / additional band in the TDM region (TLC) / additional lower polarity bands than TMM (TLC): 100 μM probe; for additional band in the TDM region (TLC) / additional lower polarity bands than TMM (TLC): Fig. 8 shows Mtb and M. bovis BCG
[5] = test system: Mycobacterium tuberculosis; experiment: Time dependent F-Tre uptake, HPAEC-PAD of cytosolic extracts; assay type: cell-based; conditions: for accumulation rate: 100 μM probe, cytosolic extracts; for Mtb cytosolic concentration: 100 µM probe; for saturation of uptake: up to the 8 hour timepoint
Experimental: lyophilised, resuspended in 1 mL 18 MΩ H2O and filtered through a 10-kDa molecular weight cut-off centrifuge filter (Amicon) and the filtrate analysed. HPAEC-PAD was performed on a Dionex ICS5000+ system with a CarboPac PA-20 analytical column (3 mm x 150 mm) and PA-20 guard column (3 mm x 30 mm) kept at 20 °C. Pulsed amperometry with standard quadrupole waveform was used for detection. The system was equipped with an autosampler that was set up to inject 10 μL sample volumes. Multistep gradient […]
Chromeleon 7 software (Dionex) was used for data processing.
Table S11: High performance anion exchange chromatography KOH elution gradient for F-Tre analysis Time (min) KOH conc. (mM) Flow rate (mL/min)
To quantify uptake, the peak area of 2F-Tre, 3F-Tre and 6F-Tre standards at varying concentrations were measured (Chromeleon 7 software). The peak area was plotted against concentration and simple linear regression was plotted. To determine the concentration of F-Tre analogues in cytosolic samples the area of the peaks of interest was measured (Chromeleon 7 software) and the concentration determined from the calibration […]
Time dependent F-Tre uptake
M. tuberculosis was grown to an OD600 of 0.8, then 2F-Tre, 3F-Tre, 4F-Tre or 6F-Tre were added to a final concentration of 100 µM. Controls with the equivalent volume of water or equivalent concentration of trehalose were also prepared. 5 mL aliquots were taken at T=0, 0.5, 1, 1.5, 2, 3, 4, 6, 8 h and the cells were harvested by centrifugation (2,916 x g, 5 min, 22 ° C) and washed (5 mL PBST) three times. The pellets were then resuspended in 1 mL H2O and lysed by mechanical disruption using 0.1 mm zirconia/silica beads (BioSpec Products) on a FastPrep (MP Biomedicals) ribolyser (4 x 45 s cycles with 90 s on ice in between).
Samples were then centrifuged (16,200 x g, 10 min, 22 °C) and the supernatant collected, lyophilised, resuspended in 1 mL 18 MΩ H2O and filtered through a 10-kDa molecular weight cut-off centrifuge filter (Amicon). The filtrate was analysed by HPAEC-PAD and quantified as described above.

[6] = test system: Mycobacterium tuberculosis; experiment: F-Tre uptake at a single time point, HPAEC-PAD of cytosolic extracts; assay type: cell-based; conditions: for uptake / accumulation in Mtb cells: 0-200 μM probe, ion chromatography of cytosolic extracts; for Peak area of F-Tre peak: HPAEC trace
[7] = test system: Wild-type Mycobacterium bovis BCG; assay type: cell-based; conditions: 100 μM probe
[8] = molecular target: T1, LpqY; experiment: Microscale thermophoresis (MST) binding to LpqY; conditions: for fold weaker binding to LpqY: compared with 3F-Tre, 6F-Tre and unmodified trehalose
Experimental: Microscale Thermophoresis
Mtr LpqY (2.6 μM) was labelled with the amine reactive RED-NHS dye (3 μM) (second generation,
NanoTemper Technologies). Following incubation in the dark for 30 min with shaking (300 rpm, room
temperature), excess dye was removed using a Zeba desalting spin column (7KMWCO).
analogues were prepared in PBS containing 0.05% Tween 20, and the final concentration of the protein in the
assay was 500 nM. The samples were loaded into the MonoLith NT.115 standard treated capillaries and
incubated for 10 min before analysis using the Monolith NT.115 instrument (NanoTemper Technologies) at

T1 sequence (G7CES0 29-471): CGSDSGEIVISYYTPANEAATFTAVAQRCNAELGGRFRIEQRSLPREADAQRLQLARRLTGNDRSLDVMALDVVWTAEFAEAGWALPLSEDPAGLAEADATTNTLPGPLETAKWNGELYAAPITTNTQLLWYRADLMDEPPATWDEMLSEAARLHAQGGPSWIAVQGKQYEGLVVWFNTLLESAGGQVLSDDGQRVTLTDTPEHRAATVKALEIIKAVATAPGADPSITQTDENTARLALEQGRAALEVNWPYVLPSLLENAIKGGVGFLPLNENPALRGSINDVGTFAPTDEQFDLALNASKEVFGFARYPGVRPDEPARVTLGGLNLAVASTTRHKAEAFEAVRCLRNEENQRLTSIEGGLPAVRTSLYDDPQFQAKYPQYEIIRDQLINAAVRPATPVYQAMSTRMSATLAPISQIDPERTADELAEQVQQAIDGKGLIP

## [N-]=[N+]=N[C@H]1[C@@H](O[C@H]2O[C@H](CO)[C@@H](O)[C@H](O)[C@H]2O)O[C@H](CO)[C@@H](O)[C@@H]1O [2Az-Tre, 2-Deoxy-2-azido-trehalose]
[1]
  Kd: 1916 ± 7.7 µM

## OC[C@H]1O[C@H](O[C@H]2O[C@H](CO)[C@@H](O)[C@H](O)[C@H]2F)[C@H](O)[C@@H](O)[C@@H]1O [2F-Tre, 2-deoxy-2-fluoro-trehalose]
[2]
  new spots in the lipid extracts (TLC): new spots
[3]; 100 µM probe, HPAEC-PAD
  detection in hydrolysed lipid extracts: detected
[3]; Mtb + F-Tre (100 µM)
  Peak area of F-Tre peak in hydrolysed lipid extracts: 0.662 nC*min
[4]
  new spots in the lipid extracts (TLC): new spots
  additional band in the TDM region (TLC): one additional lower polarity TDM band
  additional lower polarity bands than TMM (TLC): Two additional lower polarity bands than TMM
[5]
  accumulation rate: 0.80 µM/h
  saturation of uptake: no saturation of uptake
[5]; Time 0 h
  Mtb cytosolic concentration: 0 ± 0 µM
[5]; Time 0.5 h
  Mtb cytosolic concentration: 636 ± 33 µM
[5]; Time 1 h
  Mtb cytosolic concentration: 838 ± 52 µM
[5]; Time 1.5 h
  Mtb cytosolic concentration: 1144 ± 250 µM
[5]; Time 2 h
  Mtb cytosolic concentration: 1717 ± 151 µM
[5]; Time 4 h
  Mtb cytosolic concentration: 2917 ± 105 µM
[5]; Time 6 h
  Mtb cytosolic concentration: 4597 ± 236 µM
[5]; Time 8 h
  Mtb cytosolic concentration: 6639 ± 337 µM
[6]
  uptake / accumulation in Mtb cells: significant dose-dependent increase in the accumulation
[6]; Mtb + 25 µM F-Tre
  Peak area of F-Tre peak: 0.096 nC*min
[6]; Mtb + 50 µM F-Tre
  Peak area of F-Tre peak: 0.206 nC*min
[6]; Mtb + 100 µM F-Tre
  Peak area of F-Tre peak: 0.362 nC*min
[6]; Mtb + 200 µM F-Tre
  Peak area of F-Tre peak: 1.328 nC*min
[7]
  accumulation in cytosolic extracts: accumulate
[8]
  Kd: 770 ± 23.2 µM
  fold weaker binding to LpqY: ~8 fold

## [N-]=[N+]=N[C@@H]1[C@@H](O)[C@@H](O[C@H]2O[C@H](CO)[C@@H](O)[C@H](O)[C@H]2O)O[C@H](CO)[C@H]1O [3Az-Tre, 3-Deoxy-3-azido-trehalose]
[1]
  Kd: 475 ± 17.2 µM

## OC[C@H]1O[C@H](O[C@H]2O[C@H](CO)[C@@H](O)[C@H](F)[C@H]2O)[C@H](O)[C@@H](O)[C@@H]1O [3F-Tre, 3-deoxy-3-fluoro-trehalose]
[2]
  new spots in the lipid extracts (TLC): new spots
[4]
  new spots in the lipid extracts (TLC): new spots
  additional band in the TDM region (TLC): one additional lower polarity TDM band
  additional lower polarity bands than TMM (TLC): Two additional lower polarity bands than TMM
[5]
  accumulation rate: 0.94 µM/h
  saturation of uptake: no saturation of uptake
[5]; Time 0 h
  Mtb cytosolic concentration: 0 ± 0 µM
[5]; Time 0.5 h
  Mtb cytosolic concentration: 250 ± 102 µM
[5]; Time 1 h
  Mtb cytosolic concentration: 423 ± 256 µM
[5]; Time 1.5 h
  Mtb cytosolic concentration: 1030 ± 335 µM
[5]; Time 2 h
  Mtb cytosolic concentration: 1628 ± 25 µM
[5]; Time 4 h
  Mtb cytosolic concentration: 3016 ± 102 µM
[5]; Time 6 h
  Mtb cytosolic concentration: 5872 ± 297 µM
[5]; Time 8 h
  Mtb cytosolic concentration: 7892 ± 72 µM
[5]; at 8 hours
  increased accumulation compared to 2F- and 6F-Tre: ~20%
[6]
  uptake / accumulation in Mtb cells: significant dose-dependent increase in the accumulation
[6]; Mtb + 25 µM F-Tre
  Peak area of F-Tre peak: 1.869 nC*min
[6]; Mtb + 50 µM F-Tre
  Peak area of F-Tre peak: 3.093 nC*min
[6]; Mtb + 100 µM F-Tre
  Peak area of F-Tre peak: 6.779 nC*min
[6]; Mtb + 200 µM F-Tre
  Peak area of F-Tre peak: 12.530 nC*min
[7]
  accumulation in cytosolic extracts: accumulate
[8]
  Kd: 111 ± 7.1 µM

## [N-]=[N+]=N[C@H]1[C@H](O)[C@@H](O)[C@@H](O[C@H]2O[C@H](CO)[C@@H](O)[C@H](O)[C@H]2O)O[C@@H]1CO [4Az-Tre, 4-Deoxy-4-azido-trehalose]
[1]
  Kd: 247 ± 7.1 µM

## OC[C@H]1O[C@H](O[C@H]2O[C@H](CO)[C@@H](F)[C@H](O)[C@H]2O)[C@H](O)[C@@H](O)[C@@H]1O [4F-Tre]
[2]
  presence in trehalose glycolipids: not found in any trehalose glycolipid
  new spots in the lipid extracts (TLC): No new spots
[4]
  presence in trehalose glycolipids: not found in any trehalose glycolipid
  new spots in the lipid extracts (TLC): No new spots
[5]; Time 0 h
  Mtb cytosolic concentration: 0 µM
[5]; Time 0.5 h
  Mtb cytosolic concentration: 0 µM
[5]; Time 1 h
  Mtb cytosolic concentration: 0 µM
[5]; Time 1.5 h
  Mtb cytosolic concentration: 0 µM
[5]; Time 2 h
  Mtb cytosolic concentration: 0 µM
[5]; Time 4 h
  Mtb cytosolic concentration: 0 µM
[5]; Time 6 h
  Mtb cytosolic concentration: 0 µM
[5]; Time 8 h
  Mtb cytosolic concentration: 0 µM
[6]
  uptake / accumulation in Mtb cells: No uptake
[7]
  accumulation in cytosolic extracts: not
[8]
  Kd: 1480 ± 75.6 µM
  fold weaker binding to LpqY: ~16 fold
[8]; MST
  affinity range: millimolar range

## [N-]=[N+]=NC[C@H]1O[C@H](O[C@H]2O[C@H](CO)[C@@H](O)[C@H](O)[C@H]2O)[C@H](O)[C@@H](O)[C@@H]1O [6Az-Tre, 6-Deoxy-6-azido-trehalose]
[1]
  Kd: 443 ± 5.3 µM

## OC[C@H]1O[C@H](O[C@H]2O[C@H](CF)[C@@H](O)[C@H](O)[C@H]2O)[C@H](O)[C@@H](O)[C@@H]1O [6F-Tre, 6-deoxy-6-fluoro-trehalose]
[2]
  new spots in the lipid extracts (TLC): new spots
[4]
  new spots in the lipid extracts (TLC): new spots
  additional band in the TDM region (TLC): no additional band in the TDM region
  additional lower polarity bands than TMM (TLC): one
[5]
  accumulation rate: 0.82 µM/h
  saturation of uptake: no saturation of uptake
[5]; Time 0 h
  Mtb cytosolic concentration: 0 ± 0 µM
[5]; Time 0.5 h
  Mtb cytosolic concentration: 342 ± 16 µM
[5]; Time 1 h
  Mtb cytosolic concentration: 797 ± 224 µM
[5]; Time 1.5 h
  Mtb cytosolic concentration: 1392 ± 83 µM
[5]; Time 2 h
  Mtb cytosolic concentration: 1804 ± 111 µM
[5]; Time 4 h
  Mtb cytosolic concentration: 2945 ± 234 µM
[5]; Time 6 h
  Mtb cytosolic concentration: 4694 ± 237 µM
[5]; Time 8 h
  Mtb cytosolic concentration: 6843 ± 43 µM
[6]
  uptake / accumulation in Mtb cells: significant dose-dependent increase in the accumulation
[6]; Mtb + 25 µM F-Tre
  Peak area of F-Tre peak: 0.144 nC*min
[6]; Mtb + 50 µM F-Tre
  Peak area of F-Tre peak: 0.506 nC*min
[6]; Mtb + 100 µM F-Tre
  Peak area of F-Tre peak: 0.866 nC*min
[6]; Mtb + 200 µM F-Tre
  Peak area of F-Tre peak: 1.604 nC*min
[7]
  accumulation in cytosolic extracts: accumulate
[8]
  Kd: 90.3 ± 0.9 µM
